Results: patent US7888355B2, “Compositions and methods for inhibiting growth and metastasis of melanoma” (Burnham Institute for Medical Research, priority 2007, dated 2011)
Read-outs that look alike come from different tables or passages of the source.

How the values were obtained:
[1] = tested on: NF-κB transcriptional activity; test: 2-NFκ-B-luciferase reporter assay in SW1 cells; format: cell-based, mouse; conditions: 8 h
Description: (§1) Constructs and inhibitors. An ATF2 peptide (aa 51-100) was cloned into HA-tagged pcDNA3 vector as previously described (Bhoumik et al., Cancer Res 64:8222-30, 2004). 5×Jun2tk-Luc (marker for ATF2 transcriptional activities), 5×TRE-tk-Luc (marker for AP1/c-Jun transcriptional activities) and 2×NF-B-Luc were previously described (Bhoumik et al., J Clin Invest 110:643-50, 2002). Pharmacological inhibitor of JNK (SP600125) was purchased (EMD biosciences) and added (5 μM) to cultured cells as indicated in Results.
(§2) Transcriptional analysis. Transient transfection of different reporter constructs into melanoma cells was performed using LIPOFECTAMINE PLUS transfection reagent (Invitrogen). Luciferase activity was determined as previously described (Bhoumik et al., PNAS 101:4222-7, 2004).
To assess whether CSL may affect the transcriptional activities of genes other than ATF2 and c-Jun, possible changes in transcriptional activities of NF-κB were monitored. Transcriptional activation of NFκ-B was assessed using the 2-NFκ-B-luciferase assay. Briefly, SW1 cells were transfected with the 2-NFκ-B-luciferase plasmid and 24 h later, cells were treated with the indicated concentrations of AIGA or CSL for 8 h before proteins were prepared and level of luciferase activity was measured. ATF250-100 peptide was used as a positive control. Data shown represent results from 2 experiments. […]

[2] = tested on: phosphorylation of c-Jun; test: Western blot for c-Jun phosphorylation in SW1 cells; format: cell-based, mouse; conditions: AIGA 0.5 or 2.0 μM, CSL 0.5 or 1.0 μM, 20 h
Description: Immunoblot analysis. Proteins prepared from cells at the indicated time points using RIPA buffer and 75 μg were separated on SDS-PAGE followed by immunoblot analysis using the antibodies indicated. Antibodies used were as follows: anti-JNK (Santa Cruz), phospho-JNK (Promega Corp.; Madison, Wis.), phospho c-Jun (Cell Signaling Technology, Inc.; Danvers, Mass.), c-Jun (Santa Cruz Biotechnology, Inc.; Santa Cruz, Calif.) and Caspase 8 (BD Biosciences; San Jose, Calif.).
The activation of JNK by both compounds was confirmed upon analysis of its substrate c-Jun. SW1 cells were pretreated with the JNK inhibitor SP600125 followed by addition of AIGA (0.5 μM or 2.0 μM) or CSL (0.5 μM or 1.0 μM) for 20 h. Total protein extracts were used to determine the phosphorylation of c-Jun.

[3] = tested on: SW1 melanoma cells; test: Apoptosis by FACS of PI-stained SW1 cells; format: cell-based, mouse; conditions: 48 h
Description: Mitochondrial activity and apoptosis. Cells were exposed to the chemicals for 12-48 hours as indicated in Results. To measure changes in mitochondrial activity reflective of general cell viability, the ATPLITE ATP detection assay was used according to the manufacturer's recommendations (Perkin Elmer). Apoptosis analysis was performed by flow cytometry of PI-stained cells. The percentage of cells to the left of the diploid G0/1 peak, characteristic of hypodiploid cells that have partially lost DNA, was calculated as percentage of apoptotic cells (Bhoumik et al., PNAS 101:4222-7, 2004). Analysis of changes in Caspase 8 expression pattern was performed using immunoblot analysis.
The finding that CSL and AIGA reduced cell viability in melanoma was made using the ATPLITE assay, which monitors the degree of mitochondrial ATP release, a marker for mitochondrial activity. To directly assess possible changes in the apoptosis of melanoma cells following their exposure to CSL or AIGA, FACS analysis of the melanoma cells was performed 48 h after treatment. […] Treatment with 1 μM AIGA caused 15% apoptosis in these melanoma cultures (FIG. 4a). Treatment with CSL caused 13% apoptosis at a dose of 0.5 μM and 35% apoptosis at a dose of 1 μM (FIG. 4b). Consistent with these finding is the activation of caspases 8, a classic marker for apoptosis, which was observed upon addition of these compounds, by Western blot analysis. SW1 cells were treated with 0.5 μM AIGA, 0.5 μM CSL, 1.0 μM CSL for 24 hours. Staurosporin was used as a positive control. Immunoblot analysis using caspase 8 antibody monitored full length and cleaved forms (active) of caspase 8. β-actin was used as a loading control.

[4] = tested on: normal human breast cultures MCF10; test: Toxicity on normal human breast cultures; format: cell-based
[5] = tested on: ATF2 transcriptional activity; test: Jun2-luciferase reporter assay in SW1 cells; format: cell-based; conditions: Mus musculus, Jun2-Luc, 8 h, read-out: concentration required to cause about 50% inhibition of ATF2 transcriptional activity
Description: as §1, §2
These compounds were next assessed for their impact on ATF2 transcriptional activity. The effect of AIGA on ATF2 transcriptional activities was measured by the Jun2-luciferase assay. SW1 cells were transfected with the Jun2-luciferase plasmid and 24 h later cells were treated with the indicated concentrations of AIGA or CSL for 8 h before proteins were prepared and level of luciferase activity was measured. ATF2 51-100 peptide was used as a positive control. Data shown represent results from 3 experiments. […]

SMILES	NF-κB transcriptional activity [1]	c-Jun phosphorylation [2]	% apoptosis of SW1 melanoma cells ([3]; 1 μM)	toxic effect on normal human breast cultures MCF10 [4]	IC50 [5]	% apoptosis of SW1 melanoma cells ([3]; 0.5 μM)	toxic effect on normal human breast cultures MCF10 ([4]; data not shown)
CC(=O)Oc1c2c(c(CC=C(C)C)c3c1C(=O)C1=C[C@@H]4CC5C(C)(C)OC(C/C=C(\C)C(=O)O)(C4=O)[C@@]15O3)OC(C)(CCC=C(C)C)C=C2 (some centres unmarked) [AIGA, Acetyl isogambogic acid]	dose-dependent inhibition	efficiently induced c-Jun phosphorylation	15%	Neither CSL nor AIGA elicited toxic effect	~500 nM		
CC1=C(O)C(=O)C=C2C1=CC=C1[C@@]2(C)CC[C@@]2(C)[C@@H]3C[C@](C)(C(=O)O)CC[C@]3(C)CC[C@]12C [Celastrol]	dose-dependent inhibition	efficiently induced c-Jun phosphorylation, with CSL being more potent	35%		~50 nM	13%	Neither CSL nor AIGA elicited toxic effect
